In patent US6355677B1, “Adrenoleukodystrophy treatments and drug screening” (The Johns Hopkins University, priority 1998, dated 2002):
“Also recorded” adds a separate entry of the source.

Tests used:
Type in all cases: cell-based
[1] = test system: human X-ALD lymphoblastoid cells; experiment: VLCFA (C24:0 and C26:0) levels in cultured cells, capillary GC
Method: (§1) Cell lines derived from X-ALD patients and X-ALD mice were grown in MEM (fibroblasts) or RPMI (lymphoblastoid cells) supplemented with fetal calf serum (10%), penicillin (100 U/ml), streptomycin (100 U/ml) and glutamine (2 mM). […] Cells in the second flask were grown without drug for the same length of time and served as controls. The media were changed every 3-4 days.
(§2) For VLCFA measurements, total lipids were extracted, converted to methyl esters, purified by TLC and subjected to capillary GC analysis as described. Duplicate assays were set up independently and were assayed on different days. C24:0 β-oxidation activity of human and mouse fibroblasts and human lymphoblastoid cells was determined by measuring their capacity to degrade [1-^14C]-C24:0 fatty acid (American Radiolabeled Chemicals, St. Louis, Mo.) to water-soluble products as described. Phytanic acid oxidation was measured as described. Cells were incubated with [2,3-^3H]-phytanic acid for 24 hours, and the release of ^3H-H2O to the aqueous medium was determined (activity in pmol/hr per mg protein).

[2] = test system: human X-ALD primary fibroblasts; experiment: as above; conditions: for C24:0 level, Treated / C26:0 Percent Correction / C26:0 level, Treated / C24:0 Percent Correction: X-ALD human primary fibroblasts
Method: as §1, §2

[3] = test system: mouse X-ALD primary fibroblasts; experiment: as above; conditions: 5 mM; for C24:0 Percent Correction / C24:0 level, Treated / C26:0 Percent Correction / C26:0 level, Treated: X-ALD mouse primary fibroblasts
Method: as §1, §2

[4] = test system: X-ALD human primary fibroblasts; experiment: C24:0 β-oxidation ([1-14C]-C24:0 degradation); conditions: 5 mM 4PBA for 6 days
Method: as §1, §2

[5] = test system: X-ALD mouse primary fibroblasts; experiment: C24:0 β-oxidation ([1-14C]-C24:0 degradation); conditions: 5 mM 4PBA for 6 days
Method: as §1, §2

ALDP = experiment: Semi-quantitative RT-PCR, human primary fibroblasts; conditions: normal fibroblasts, 5 mM, 2 days
Method: (§3) Semi-quantitative RT-PCR was done on the mRNA isolated from these cells (FIG. 1). […] In addition, the expression of acyl-CoA oxidase (AOX), the rate-limiting enzyme in VLCFA β-oxidation, was not affected. Although previous studies have reported that ALDR mRNA was not detectable in fibroblasts by either northern or RT-PCR analyses, those RT-PCR studies used about 66 ng of CDNA; we used about 250 ng of cDNA.
(§4) Total RNA from tissue culture cells (10^6-10^7 cells/sample) was isolated using TRizol Reagent™ (Life Technologies), treated with DNase I (100-200 units in 40 mM HC, 10mM NaC, 6 mM MgCl2, pH 7.3), incubated at 37° C. for 30 min, extracted with pheno/chloroform, and precipitated with isopropanol. cDNA was generated using MMLV reverse transcriptase (RT) (Life Technologies). PCR was done in the linear range of amplification (determined for each primerpair-cDNA combination). For each cDNA sample, a ‘cocktail’ was prepared, containing PCR buffer (Promega), 200 µM of each DNTP, 1.5 mM MgCl2, 250 ng cDNA, 0.25 U of Taq polymerase (Promega) and […]. The ‘cocktail’ was divided into separate tubes containing cDNA specific primers.
(§5) The PCR primers used are listed below. In the parentheses, h indicates human and m, mouse; this is followed by the gene name, product size and annealing temperature. For primer sequences, F is forward and R is reverse. (hALD, 249, 64° C.) F: 5′-[…]-3′, R: 5′-[…]-3′; (mALD, 526, 59° C.) F: 5′-[…]-3′, R: 5′-[…]-3′; (hPMP70, 405, 60° C.) F: 5′-[…]-3′, R: 5′-[…]-3′; (mPMP70, 405, 60° C.) F: 5′-TTr[…]-3′, R: 5′-[…]-3′; (hALDR, 312, 56° C.) F: 5-[…]-3′, R: 5′-[…]-3′; (mALDR, 711, 57° C.) F: 5′-[…]-3′, R: 5′-[…]-3′; (hPMP69, 319, 60° C.) F: 5′-[…]-3′, R: 5-[…]-3′; (hAOX, 405, 60° C.) F: 5′-[…]-3′, R: 5′[…]-3′; (mAOX, 247, 60° C.) F: 5′-[…]r[…]-3′, R: 5′-[…]-3′; (hPPARα, 347, 60° C.) F: 5-[…]r[…]rCC-3′, R: 5′-[…]-3′; (mFPPARa, 268, 60° C.) F: 5′-GATTr[…]-TGAGG-3, R: 5′-[…]-3′; (hPex11α 658, 55° C.) F: 5-[…]-3′, R: 5′-[…]-3′; (mpex11α, 720, 55° C.) F: 5′-[…]r[…]-3′, R: 5′-[…]-3′; (β-Actin, 460, 62° C.) F:5′-[…]-3′, R: 5′-[…]-3, (glyceraldehyde 3-phosphate dehydrogenase (GAPDH), 528, 62° C.) F: 5′-[…]-3, R: 5′-[…]-3′. β-Actin and GAPDH primers were used for both human and mouse analyses.

ALDR mRNA = experiment: as above; conditions: normal and X-ALD fibroblasts, 5 mM, 2 days, relative to β-actin
Method: as §3, §4, §5

PMP69 = experiment: as above; conditions: X-ALD or normal fibroblasts, 5 mM, 2 days
Method: as §3, §4, §5

PMP70 = experiment: as above; conditions: X-ALD or normal fibroblasts, 5 mM, 2 days
Method: as §3, §4, §5

acyl-CoA oxidase (AOX) = experiment: as above; conditions: 5 mM
Method: as §3, §4, §5

[6] = X-ALD human lymphoblastoid cells, 5 mM, exposure 6 days
[7] = X-ALD human lymphoblastoid cells, 5 mM, exposure 10 days
[8] = between 1 mM and 5 mM, data not shown

## O=C(O)CCCc1ccccc1 [4-PBA, 4-Phenyl butyrate]
[1]; 5 mM, human lymphoblastoid cells
  Time of treatment until C24:0 and C26:0 levels were normalized: ≤ 10 days
[1]; [6]
  C24:0 level, Treated: 0.65 ± 0.17% of total fatty acids
  C26:0 Percent Correction: 71%
  C26:0 level, Treated: 0.11 ± 0.05% of total fatty acids
[1]; [7]
  C24:0 Percent Correction: 161%
  C24:0 level, Treated: 0.54 ± 0.16% of total fatty acids
  C26:0 Percent Correction: 90%
  C26:0 level, Treated: 0.09 ± 0.05% of total fatty acids
[1]; [8]
  Effect on VLCFA levels over concentration range: dose-dependent decrease
[2]; 5 mM, human X-ALD fibroblasts
  Time of treatment until C24:0 levels were normalized: ≤ 10 days
[2]; 5 mM, exposure 1 day
  C24:0 level, Treated: 2.65 ± 0.36% of total fatty acids
  C26:0 Percent Correction: 2%
  C26:0 level, Treated: 0.51 ± 0.14% of total fatty acids
[2]; 5 mM, exposure 1 day, untreated X-ALD 0%, normal 100%
  C24:0 Percent Correction: −1%
[2]; 5 mM, exposure 6 days
  C24:0 Percent Correction: 81%
  C24:0 level, Treated: 1.82 ± 0.28% of total fatty acids
  C26:0 Percent Correction: 26%
  C26:0 level, Treated: 0.41 ± 0.04% of total fatty acids
[2]; 5 mM, exposure 12 days
  C24:0 Percent Correction: 155%
  C24:0 level, Treated: 1.43 ± 0.34% of total fatty acids
  C26:0 Percent Correction: 33%
  C26:0 level, Treated: 0.31 ± 0.06% of total fatty acids
[2]; 5 mM, exposure 16 days
  C24:0 Percent Correction: 96%
  C24:0 level, Treated: 1.69 ± 0.27% of total fatty acids
  C26:0 Percent Correction: 38%
  C26:0 level, Treated: 0.28 ± 0.03% of total fatty acids
[2]; 5 mM, exposure 22 days
  C24:0 Percent Correction: 128%
  C24:0 level, Treated: 1.52 ± 0.14% of total fatty acids
  C26:0 Percent Correction: 47%
  C26:0 level, Treated: 0.27 ± 0.04% of total fatty acids
[2]; [8]
  Effect on VLCFA levels over concentration range: dose-dependent decrease
[3]; mouse fibroblasts
  Time of treatment until C24:0 and C26:0 levels were normalized: ≤ 10 days
[3]; exposure 5 days
  C24:0 Percent Correction: 115%
  C24:0 level, Treated: 1.10 ± 0.15% of total fatty acids
  C26:0 Percent Correction: 92%
  C26:0 level, Treated: 0.07 ± 0.03% of total fatty acids
[3]; exposure 9 days
  C24:0 Percent Correction: 152%
  C24:0 level, Treated: 0.87 ± 0.04% of total fatty acids
  C26:0 Percent Correction: 100%
  C26:0 level, Treated: 0.05 ± 0.01% of total fatty acids
[4]
  C24:0 β-oxidation, Increase (treated over untreated): twofold to threefold
  C24:0 β-oxidation, Treated (mean specific activity): 0.39 ± 0.07 nmol/hr per mg protein
[5]
  C24:0 β-oxidation, Increase (treated over untreated): twofold to threefold
  C24:0 β-oxidation, Treated (mean specific activity): 0.28 ± 0.03 nmol/hr per mg protein
ALDP
  ALDP expression level: little, if any, effect
ALDR mRNA
  ALDR mRNA level: substantially increased; also recorded: substantial increase
PMP69
  PMP69 expression level: little, if any, effect
PMP70
  PMP70 expression level: little, if any, effect
acyl-CoA oxidase (AOX); 2 days
  AOX expression: unchanged; also recorded: not affected
acyl-CoA oxidase (AOX); 10 days
  AOX expression: remained unchanged
